Measurements published in the Kinase Knowledgebase extract (Sharma et al. 2016).

What follows are compounds tested against MAPK14 (UniProt Q16539) (assay: p38 Kinase Inhibition Assay).
MAPK14, sequence (Q16539 whole entry, looked up): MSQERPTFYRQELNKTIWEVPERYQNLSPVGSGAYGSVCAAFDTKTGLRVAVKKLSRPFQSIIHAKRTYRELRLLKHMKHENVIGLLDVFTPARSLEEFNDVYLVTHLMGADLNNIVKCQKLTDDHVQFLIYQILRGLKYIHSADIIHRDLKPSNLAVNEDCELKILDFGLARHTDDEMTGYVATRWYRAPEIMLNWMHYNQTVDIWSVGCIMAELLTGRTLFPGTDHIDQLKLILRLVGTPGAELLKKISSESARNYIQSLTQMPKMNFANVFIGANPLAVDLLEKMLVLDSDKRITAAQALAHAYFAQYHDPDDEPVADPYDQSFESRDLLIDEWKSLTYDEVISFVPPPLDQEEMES
`CN(C)c1ccccc1C(=O)N1CCC(Cc2ccccc2)CC1` gave an IC50 of 200 to 1500 nM. In the case of `O=C(c1ccccc1Cl)N1CCC(Cc2ccccc2)CC1`, the IC50 is reported as 200 to 1500 nM. Work on `CN(C)c1cccc(C(=O)N2CCC(Cc3ccccc3)CC2)c1` yielded an IC50 of 200 to 1500 nM. `CN(C)c1ccc(C(=O)N2CCC(Cc3ccccc3)CC2)c(Cl)c1` was tested, and the IC50 was 200 to 1500 nM. Compound `CN(C)c1ccc(C(=O)N2CCC(Cc3ccccc3)CC2)cc1` has an IC50 of 200 to 1500 nM. Work on `CC1(Cc2ccccc2)CCN(C(=O)c2ccccc2Br)CC1` yielded an IC50 of 200 to 1500 nM. With `COc1ccc(C(=O)N2CCC(Cc3ccccc3)CC2)c(OC)c1` the IC50 was 200 to 1500 nM. For `O=C(c1ccccc1I)N1CCC(Cc2ccccc2)CC1`, the IC50 was 200 to 1500 nM. Compound `CC(=O)Nc1ccc(C(=O)N2CCC(Cc3ccccc3)CC2)cc1` has an IC50 of 200 to 1500 nM. Compound `O=C(c1ccccc1O)N1CCC(Cc2ccccc2)CC1` has an IC50 of 200 to 1500 nM. `O=CNc1ccc(C(=O)N2CCC(Cc3ccccc3)CC2)cc1` was tested, and the IC50 was 200 to 1500 nM. `O=C(c1ccccc1Br)N1CCC(Cc2ccccc2)CC1` showed an IC50 of 200 to 1500 nM. `Nc1ccc(C(=O)N2CCC(Cc3ccccc3)CC2)cc1` gave an IC50 of 200 to 1500 nM. With `Cc1ccccc1C(=O)N1CCC(Cc2ccccc2)CC1` the IC50 was 200 to 1500 nM. Work on `O=C(c1ccccc1)N1CCC(Cc2ccccc2)CC1` yielded an IC50 of 200 to 1500 nM. With `Nc1ccc(C(=O)N2CCC(Cc3ccccc3)CC2)c(Cl)c1` the IC50 was 200 to 1500 nM. Work on `CNc1ccc(C(=O)N2CCC(Cc3ccccc3)CC2)c(Cl)c1` yielded an IC50 of 200 to 1500 nM. In the case of `S=C(c1ccccc1)N1CCC(Cc2ccccc2)CC1`, the IC50 is reported as 200 to 1500 nM. In the case of `CNc1ccccc1C(=O)N1CCC(Cc2ccccc2)CC1`, the IC50 is reported as 200 to 1500 nM. Work on `COc1cccc(OC)c1C(=O)N1CCC(Cc2ccccc2)CC1` yielded an IC50 of 200 to 1500 nM.
